Consider three molecules from patent US7358042B2, “Triosephosphate isomerase directed diagnostics and therapeutics for multidrug resistant neoplastic disease” (priority 2003, dated 2008).

Data set [1] deals with antigen-positive E3 cell line. The conditions noted are these: read-out: IC50 (cytotoxicities); cited from earlier work.
The next data set has as its system E3 target cells. As to conditions: cited from earlier work.
The test system of data set [2] is hematological tumor cells. As to the kind of experiment: Triosephosphate isomerase vaccination of mice injected with hematological tumor cells. As to conditions: mice vaccinated prior to injection of the tumor cells versus not vaccinated. It is filed as in vivo.

As to `O=c1[nH]c(=O)n([C@H]2C[C@H](O)[C@@H](CO)O2)cc1F` [FUDR, 5-fluoro-2′-deoxyuridine], in data set [1], the half-maximal inhibitory concentration (IC50) – broadly, the concentration needed to halve the response being measured – is 0.4 nM.

For `CC(=O)[C@]1(O)Cc2c(O)c3c(c(O)c2[C@@H](O[C@H]2C[C@H](N)[C@H](O)[C@H](C)O2)C1)C(=O)c1ccccc1C3=O` [Ida, Idarubicin], in the data set on E3 target cells, the IC50 was 120 nM.

Take “triosephosphate isomerase: purified full length murine triosephosphate isomerase protein used as vaccine antigen, may be administered with an adjuvant”: the tumor size entry in data set [2] was “smaller”.
